Data on 19 molecules can be found in US12692274B2, “Tetrahydroisoquinoline derivatives for the treatment of red blood disorders and inflammatory diseases” (Sanofi, priority 2020, dated 2026).

pEC50, pIC50: −log10 of the molar value. Several values for one entry are separate records, joined by “and”; a condition that tells them apart may be missing. Equal values may be shown once. Read-outs that look alike come from different tables or passages of the source. A value given as a limit tells only on which side of the number the result lay.

The subject of series [1] is genes of interest (GOI) in HUDEP cells. The series can be described thus: Gene expression by qPCR in HUDEP cells treated with compound titration. Format: cell-based. The settings on record: HbG, read-out: HUDEP HbG EC50 (μM) (Num). As for the experimental part: Evaluation of the gene expression by qPCR in HUDEP cells treated with titration of novel compounds. HUDEP Compound Treatment Method
HUDEP cells were plated in 96-well plates, @ 25,000 cells per well in 200 μL of maintenance media. Compounds were added in a 10-point dose response starting at 10 uM with 1/3 dilution scheme using the HP digital diluter. A DMSO control was run to all for normalization of DMSO. The compounds were incubated for 48 hours in 37° C. incubator with 5% CO2. Post incubation, total RNA was isolated using Cells to Ct kit and gene expression was evaluated for genes of interest (GOI) after normalizing to a housekeeping gene. The ΔΔCT was calculated and compared to the DMSO control.
Cell Lysis, Isolation and Gene Expression Materials
Cells to Ct is a kit offered by Applied Biosystems. mRNA prepared using this kit can be directly used for cDNA conversion followed subsequently with qPCR for gene expression analysis
Cell lysis and preparation of RNA: For suspension cells such as HUDEPs, 10,000-100,000 cells (as per kit guidelines) were used for making lysates. The plate was centrifuged at 1500 rpm for 5 mins and the cells were pelleted. Spent medium was removed using a multi-channel pipette. 200 μL ice-cold PBS was added to all treated wells, followed by centrifuging at 1500 rpm for 5 mins 195 μL cold PBS were aspirated from all treatment wells without disturbing the cell monolayer.
To prepare the Cells to CT lysis solution, 49.5 μL of the Cells to CT Lysis Buffer and 0.5 μL/well DNase I (returned DNase I reagent to the −20 C freezer immediately after pipetting) were added to each well. The Cells to CT lysis solution was pipetted to a reservoir and 50 μL were added per well to the treated wells. (Mix 35 μL 5 times without creating bubbles and set timer to 5 mins. At the end of the 5-minute incubation, add 5 μL of stop solution with a multichannel pipet touching the tip to the liquid. Then mix 35 μL 5 times without creating bubbles and set timer to 2 mins.)
The plates were sealed and stored at −20° C. until cDNA synthesis. Optionally they were placed on ice to allow for directly moving to the cDNA synthesis.
cDNA Synthesis: The cell lysate plates were thawed on ice if necessary and mixed 4 times with a multi-channel pipette. 4 μL of Superscript IV VILO and 6 μL of Nuclease free water were combined together for each sample. The mixture was poured into a reservoir and 10 μL was pipetted into each well of a 96-well PCR plate. 10 μL of lysate prepared previously was added and mixed 5 times. The wells were completely sealed, especially around the edges, with plate sealing film using the plate sealing paddle. The PCR plate was centrifuged to pull down the sample to the bottom of the wells. The lysate plate was sealed and returned to the −20° C. freezer as soon as possible. The PCR plate was placed in the thermal cycler and run at 20 μL at 25° C. for 10 minutes, 50° C. for 10 minutes, 85° C. for 5 minutes and then 4° C.
Real Time PCR: The cDNA plate was thawed at room temperature when necessary and 30 μL nuclease free water was added to each cell lysate, followed by mixing, up and down 4 times with a pipette. The primers were thawed for the genes of interest—both housekeeping gene (HKG) and gene(s) of interest (GOI).
A template was prepared and the number of wells needed for each gene of interest (GOI) calculated. Each sample required 2 μL of cDNA, 5 μL of Taqman Master Mix, 0.16667 μL of GOI at 60 times concentration, 0.16667 μL of HKG at 60 times concentration and 2.6667 μL of nuclease free water. If genes at 20 times concentration were used, then 2 μL cDNA, 5 μL Taqman Master Mix, 0.5 GOI, 0.5 μL HKG and 2 μL of nuclease free water were combined for each well.
After calculating the number of wells for each gene, GOI, HKG, Taqman Master Mix and Nuclease free water were combined. 8 μL were pipetted in to each well of the 384-well PCR plate as detailed in the template. […]

In series [2] the target is HIS-Keap1 full length / Biotin-Nrf2 (16-mer) (Homo sapiens, UniProt Q14145). Kind of series: biochemical.
The subject of series [3] is NQO1 activation in BEAS-2B cells. Kind of series: BEAS-2B cellular MTT assay of NQO1 activation, 0% HSA. Format: cell-based. The gist of the method: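 For the 0% HSA condition, cells were seeded into collagen plates in HSA-free medium. Culture was BEAS-2B in BEBM plus BEGM SingleQuots lacking GA-1000, held under 70% confluence, at a seeding density reaching 95-100% confluence by 48 h.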

Series [4] has the same test system. Kind of series: BEAS-2B cellular MTT assay of NQO1 activation, 0.3% HSA. Format: cell-based. In short, it runs like this:
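MTT read-out in BEAS-2B cells grown in BEBM with SingleQuots, no GA-1000, kept below 70% confluence; plates coated with collagen, with 0.3% or 0% HSA medium, seeded to 95-100% confluency at 48 h, 37 °C, 5% CO2.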
Background: Tetrazolium assays rely on reduction of a dye to a coloured formazan, in cell work by metabolically active cells.

For series [5] the following is noted: the molecule shown is the open-chain precursor.
Where [6] appears, read: Homo sapiens, serum free, read-out: BEAS EC50 (nM) serum free.
[7] abbreviates: serum free, read-out: BEAS EC50 (nM) serum free.
[8] abbreviates: BEAS+ W, read-out: BEAS+ W EC50.
[9] abbreviates: Homo sapiens, BEAS+ W, read-out: BEAS+ W EC50.
The mark [10] stands for this setting: Homo sapiens, BEAS+, read-out: BEAS+ EC50.
Setting [11] is: rcm bond, 22-membered ring, Grubbs catalyst (General procedure 7).

Sequence of HIS-Keap1 full length / Biotin-Nrf2 (16-mer) (Q14145 whole entry): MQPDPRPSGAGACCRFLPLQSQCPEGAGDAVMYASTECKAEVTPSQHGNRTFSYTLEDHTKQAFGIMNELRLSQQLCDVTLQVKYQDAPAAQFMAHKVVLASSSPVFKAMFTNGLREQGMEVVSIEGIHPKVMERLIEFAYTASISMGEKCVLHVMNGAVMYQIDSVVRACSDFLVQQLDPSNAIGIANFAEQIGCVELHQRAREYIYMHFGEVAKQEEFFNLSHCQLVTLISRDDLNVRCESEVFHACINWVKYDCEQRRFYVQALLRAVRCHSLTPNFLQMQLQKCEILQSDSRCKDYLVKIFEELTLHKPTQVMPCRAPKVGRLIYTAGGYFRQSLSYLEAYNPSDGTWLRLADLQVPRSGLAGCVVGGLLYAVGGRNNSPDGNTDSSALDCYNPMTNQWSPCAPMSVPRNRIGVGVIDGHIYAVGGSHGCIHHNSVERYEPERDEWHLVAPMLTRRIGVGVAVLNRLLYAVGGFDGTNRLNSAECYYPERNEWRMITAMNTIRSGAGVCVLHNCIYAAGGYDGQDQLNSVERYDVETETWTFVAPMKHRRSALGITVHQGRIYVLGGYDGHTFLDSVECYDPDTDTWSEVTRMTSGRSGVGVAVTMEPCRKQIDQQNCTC

Under “from C=CCCCOc1cc(C)c(C(CC(=O)OC)c2ccc3c(c2)CN(C(=O)c2ccc(C=C)cc2)CC3)cn1, rcm bond, Grubbs catalyst”, `COC(=O)CC1c2ccc3c(c2)CN(CC3)C(=O)c2ccc(cc2)C=CCCCOc2cc(C)c1cn2` (stereo not drawn) returned a ring closure, yield of all isomers of 64%.
Turning to `COC(=O)C[C@@H]1c2ccc3c(c2)CN(CC3)C(=O)c2ccc(cc2)C=CCCCCn2cnc3c(C)c1ccc32`, under “from C=CCCCCn1cnc2c(C)c([C@H](CC(=O)OC)c3ccc4c(c3)CN(C(=O)c3ccc(C=C)cc3)CC4)ccc21, rcm bond, Grubbs 2nd generation catalyst, 48.0 h”, the ring closure, yield of all isomers is 27%.
Consider `COC(=O)C[C@H]1c2ccc3c(c2)CN(CC3)C(=O)c2ccc(cc2)CC=CCCCn2nnc3c(C)c1ccc32`, for which the ring closure, yield of all isomers (from C=CCCCn1nnc2c(C)c([C@@H](CC(=O)OC)c3ccc4c(c3)CN(C(=O)c3ccc(CC=C)cc3)CC4)ccc21, rcm bond, Grubbs catalyst) is 99%.
On to `Cc1c2ccc3c1nnn3CCCCCCc1ccc(cc1)C(=O)N1CCc3ccc(cc3C1)[C@@H]2CC(=O)O` (single isomer, unassigned) [Compound 223], for which the EC50 in series [1] was 0.015 µM. In series [2], the half-inhibitory concentration (IC50) was 0.5 nM and 0.9 nM and 1.2 nM (2×).
Take `Cc1c2ccc3c1nnn3CCCCCCOc1ccc(cc1)C(=O)N1CCc3ccc(cc3C1)[C@@H]2[C@@H](C)C(=O)O` [Compound 107]: the EC50 is 3.6 nM in series [3] (Homo sapiens, Serum Free W, read-out: BEAS EC50 (nM) Serum Free W); 0.6 nM in series [3] (setting [6]); 4.1 nM in series [3] (Serum Free W, read-out: BEAS EC50 (nM) Serum Free W); 0.4 nM in series [3] (setting [7]); 0.038 µM in series [1]. The pEC50 in series [4] (setting [8]) was 7.49; in series [4] (BEAS+, read-out: BEAS+ EC50), 8.62; in series [4] (setting [9]), 7.78; in series [4] (setting [10]) it was 8.49. In series [2], this molecule had a pIC50 of 8.80.
Turning to `Cc1c2ccc3c1nnn3CCCCCCc1ccc(cc1)C(=O)N1CCc3ccc(cc3C1)[C@H]2[C@@H](C)C(=O)O` [Compound 129], the EC50 in series [3] (setting [6]) came to 1360 nM; in series [3] (setting [7]) it was 1220 nM; in series [1] it was 0.013 µM. Moreover, the negative logarithm of the EC50 (pEC50) in series [4] (setting [8]) is 8.66 and 8.80 and 8.72; in series [4] (BEAS+, read-out: BEAS+ EC50) it was 5.51; in series [4] (setting [9]), 8.70; in series [4] (setting [10]), 5.66.
In the case of `O=C(O)CC1c2ccc(nc2)OCCCCOc2ccc(cc2)C(=O)N2CCc3ccc1cc3C2` (stereo not drawn) [Compound 211, 2-(4-oxo-31,32,33,34-tetrahydro-6,11-dioxa-3(7,2)-isoquinolina-1(5,2)-pyridina-5(1,4)-benzenacycloundecaphane-2-yl)acetic Acid], for the setting “from COC(=O)CC(c1ccc(OCCCCOc2ccc(C(=O)OC(C)(C)C)cc2)nc1)c1ccc2c(c1)CN(C(=O)OC(C)(C)C)CC2, amide bond, 3 steps”, the ring closure, yield of all isomers worked out at 7.8%. In addition, the EC50 in series [3] (setting [6]) was determined as 829 nM; in series [3] (setting [7]), 574 nM. The pEC50 in series [4] (BEAS+, read-out: BEAS+ EC50) was 5.76; in series [4] (setting [10]) it was 5.66. In series [2], the pIC50 is 7.97 and 7.61.
`Cc1cc2ccc1C(=O)N1CCc3ccc(cc3C1)[C@@H](CC(=O)O)c1ccc3c(nnn3CCCCCC2)c1C` [Compound 240]: the EC50 in series [3] (setting [6]) is 1.1 nM; in series [3] (setting [7]) it was 0.6 nM; in series [1] it was 0.018 µM. Further, the pEC50 in series [4] (BEAS+, read-out: BEAS+ EC50) is 9.22; in series [4] (setting [10]), 9.00.
`O=C(O)CC1c2ccc3c(c2)CN(CC3)C(=O)c2c(F)cc(cc2F)CCCCCn2nnc3cc1ccc32` (stereo not drawn) [Compound 241]: the EC50 in series [1] amounted to 0.095 µM. The same molecule gave a pIC50 in series [2] of 9.40.
For the molecule `O=C(O)CC1c2ccc3c(c2)CN(CC3)C(=O)c2ccc(c3ccccc23)OCCCCCCn2nnc3cc1ccc32` (stereo not drawn) [Compound 338], the EC50 came out at 25.3 nM in series [3] (setting [6]) and 0.667 µM in series [1]. Moreover, the pEC50 in series [4] (setting [10]) is 7.56. The pIC50 in series [2] is 9.70 and 10.00.
For `O=C(O)CC1c2ccc(cc2)OCCCCCc2ccc(cc2)C(=O)N2CCc3ccc1cc3C2` (stereo not drawn) [Compound 396], the EC50 in series [3] (setting [6]) is 80.5 nM; in series [3] (setting [7]), 78.2 nM. Besides, the pEC50 in series [4] (BEAS+, read-out: BEAS+ EC50) was 6.75; in series [4] (setting [10]) it was 6.69. In series [2], the pIC50 is 7.02 and 6.86.
With `O=C(O)CC1c2ccc3c(c2)CN(CC3)C(=O)c2ccc3c(ccn3CCCCCCn3nnc4cc1ccc43)c2` (stereo not drawn) [Compound 397], the half-maximal effective concentration (EC50) in series [3] (setting [6]) was found to be 597 nM; in series [3] (setting [7]), 659 nM. In addition, the pEC50 in series [4] (BEAS+, read-out: BEAS+ EC50) was 5.67; in series [4] (setting [10]), 5.82. Besides, in series [2], the pIC50 is 7.86 and 7.83.
Turning to `O=C(O)CC1c2ccc(cc2)OCCCCCOc2ccc(cc2)C(=O)N2CCc3ccc1cc3C2` (stereo not drawn) [Compound 399], the EC50 turned out to be 479 nM in series [3] (setting [6]) and 407 nM in series [3] (setting [7]). In addition, the pEC50 in series [4] (BEAS+, read-out: BEAS+ EC50) is 5.70; in series [4] (setting [10]) it was 5.70. For the same molecule, the pIC50 in series [2] is < 6.00 and 6.47.
For “amide of methyl 3-(1-(but-3-en-1-yl)-1H-benzo[d][1,2,3]triazol-5-yl)-3-(1,2,3,4-tetrahydroisoquinolin-7-yl)propanoate with 4-(allyloxy)benzoic acid”, the ring closure, isolated yield in series [5] (setting [11]) came out at 47%.
Molecule “amide of methyl 3-(4-methyl-1-(pent-4-en-1-yl)-1H-benzo[d][1,2,3]triazol-5-yl)-3-(1,2,3,4-tetrahydroisoquinolin-7-yl)propanoate with 1-methyl-5-vinyl-1H-indole-3-carboxylic acid” displayed a ring closure, isolated yield in series [5] (rcm bond, 21-membered ring, Grubbs catalyst (General procedure 7)) of 65%.
As to “amide of methyl 3-(4-methyl-6-(pent-4-en-1-yloxy)pyridin-3-yl)-3-(1,2,3,4-tetrahydroisoquinolin-7-yl)propanoate with 4-vinylbenzoic acid”, the ring closure, isolated yield in series [5] (rcm bond, 21-membered ring, Grubbs catalyst (General procedure 15)) was 64%.
Consider “amide of rel-methyl (R)-3-(1-(hex-5-en-1-yl)-4-methyl-1H-benzo[d]imidazol-5-yl)-3-(1,2,3,4-tetrahydroisoquinolin-7-yl)propanoate with 4-vinylbenzoic acid”, for which the ring closure, isolated yield in series [5] (rcm bond, 22-membered ring, Grubbs II (extra portion)) is 27%.
Turning to “amide of rel-methyl (S)-3-(4-methyl-1-(pent-4-en-1-yl)-1H-benzo[d][1,2,3]triazol-5-yl)-3-(1,2,3,4-tetrahydroisoquinolin-7-yl)propanoate with 4-allylbenzoic acid”, the ring closure, isolated yield in series [5] (setting [11]) came to 99%.
“free amino acid (NH tetrahydroisoquinoline, CO2H benzoic acid) from deprotection of Mitsunobu di-ether of tert-butyl 7-(3-(benzyloxy)-1-(1-(3-(2-hydroxyethoxy)propyl)-4-methyl-1H-benzo[d][1,2,3]triazol-5-yl)-3-oxopropyl)-3,4-dihydroisoquinoline-2(1H)-carboxylate with tert-butyl 2,6-difluoro-4-hydroxybenzoate” showed a ring closure, isolated yield in series [5] (amide bond, 23-membered ring, HATU/Et3N) of 30%.

In general, EC50 refers to the concentration at which the effect is half-maximal. Broadly, the IC50 is the point on the concentration scale where inhibition reaches its midpoint. Low values mean greater potency in that assay, high ones weaker potency in that assay. A word on the pEC50: it is the EC50 on a negative log10 scale, so that one unit is a factor of ten. For orientation: pIC50 means the IC50 on a negative log10 scale, so that one unit is a factor of ten.
